Data reported in the NIST ThermoML archive (doi:10.1021/je800110r).
“And” between values parts separate entries of the source, which are not always exact repeats. Identical values can stand only once.

Details: 323.15 K, Liquid, Vibrating tube method

CCCCCCCCCC [decane]
Details	mass density
979 kPa	707.8 kg/m3
1136 kPa	707.9 kg/m3
1175 kPa	707.9 kg/m3
2516 kPa	709.2 kg/m3
2603 kPa	709.2 kg/m3
2658 kPa	709.3 kg/m3
2678 kPa	709.4 kg/m3
2691 kPa	709.3 kg/m3
2692 kPa	709.2 kg/m3 and 709.4 kg/m3
2703 kPa	709.4 kg/m3
2822 kPa	709.4 kg/m3
2861 kPa	709.4 kg/m3
2878 kPa	709.5 kg/m3
2894 kPa	709.6 kg/m3
2913 kPa	709.5 kg/m3
2936 kPa	709.5 kg/m3
2951 kPa	709.6 kg/m3
2967 kPa	709.5 kg/m3
2987 kPa	709.6 kg/m3
3000 kPa	709.7 kg/m3
3022 kPa	709.6 kg/m3
3044 kPa	709.5 kg/m3
3064 kPa	709.6 kg/m3
3081 kPa	709.7 kg/m3
4273 kPa	710.8 kg/m3
4294 kPa	710.8 kg/m3
4322 kPa	710.8 kg/m3
4342 kPa	710.9 kg/m3
4361 kPa	710.8 kg/m3
4382 kPa	710.8 kg/m3
4423 kPa	710.9 kg/m3
4487 kPa	711 kg/m3
4606 kPa	711 kg/m3
4625 kPa	711.1 kg/m3
4647 kPa	711.1 kg/m3
4668 kPa	711.2 kg/m3
4685 kPa	711.2 kg/m3
4861 kPa	711.3 kg/m3
4889 kPa	711.4 kg/m3
4922 kPa	711.3 kg/m3
5651 kPa	712 kg/m3
5805 kPa	712.2 kg/m3
5822 kPa	712.1 kg/m3
5843 kPa	712.2 kg/m3
5857 kPa	712.3 kg/m3
5874 kPa	712.2 kg/m3
5887 kPa	712.2 kg/m3
6263 kPa	712.6 kg/m3
6285 kPa	712.6 kg/m3
6300 kPa	712.6 kg/m3
6321 kPa	712.5 kg/m3
6341 kPa	712.7 kg/m3
6363 kPa	712.7 kg/m3
6380 kPa	712.6 kg/m3
6398 kPa	712.7 kg/m3
6436 kPa	712.7 kg/m3
6474 kPa	712.7 kg/m3
6492 kPa	712.8 kg/m3
6514 kPa	712.7 kg/m3
6635 kPa	712.8 kg/m3
6654 kPa	712.9 kg/m3
6678 kPa	712.9 kg/m3
6703 kPa	713 kg/m3
6916 kPa	713 kg/m3
6934 kPa	713.1 kg/m3
6961 kPa	713.2 kg/m3
6979 kPa	713.1 kg/m3
7007 kPa	713.1 kg/m3
7029 kPa	713.3 kg/m3
7057 kPa	713.3 kg/m3
7082 kPa	713.3 kg/m3
7102 kPa	713.2 kg/m3
7118 kPa	713.3 kg/m3
7137 kPa	713.4 kg/m3
7158 kPa	713.4 kg/m3
7174 kPa	713.4 kg/m3
7190 kPa	713.4 kg/m3
7203 kPa	713.3 kg/m3
7224 kPa	713.3 kg/m3
7238 kPa	713.4 kg/m3
7254 kPa	713.5 kg/m3
7271 kPa	713.5 kg/m3
7304 kPa	713.4 kg/m3
7318 kPa	713.5 kg/m3
7339 kPa	713.4 kg/m3
7354 kPa	713.4 kg/m3
7368 kPa	713.5 kg/m3
8395 kPa	714.3 kg/m3
8425 kPa	714.4 kg/m3
8563 kPa	714.5 kg/m3
8605 kPa	714.6 kg/m3
9325 kPa	715.2 kg/m3
9451 kPa	715.3 kg/m3
10321 kPa	715.9 kg/m3
10344 kPa	716 kg/m3
10548 kPa	716.3 kg/m3
11286 kPa	716.8 kg/m3
11307 kPa	716.8 kg/m3
11331 kPa	716.8 kg/m3
11359 kPa	716.8 kg/m3
11377 kPa	716.9 kg/m3
11401 kPa	717 kg/m3
11467 kPa	717 kg/m3
12096 kPa	717.5 kg/m3
12122 kPa	717.5 kg/m3
12147 kPa	717.6 kg/m3
12173 kPa	717.6 kg/m3
12190 kPa	717.7 kg/m3
12213 kPa	717.5 kg/m3
12230 kPa	717.6 kg/m3
12257 kPa	717.6 kg/m3
12397 kPa	717.7 kg/m3
12417 kPa	717.7 kg/m3
12435 kPa	717.8 kg/m3
12457 kPa	717.8 kg/m3
12472 kPa	717.8 kg/m3
12495 kPa	717.8 kg/m3
12510 kPa	717.9 kg/m3
12528 kPa	717.8 kg/m3
12854 kPa	718.2 kg/m3
12869 kPa	718.2 kg/m3
12887 kPa	718.1 kg/m3
12906 kPa	718.2 kg/m3
12919 kPa	718.1 kg/m3
12964 kPa	718.2 kg/m3
12977 kPa	718.3 kg/m3
12991 kPa	718.2 kg/m3
13012 kPa	718.2 kg/m3
13060 kPa	718.2 kg/m3
13843 kPa	718.9 kg/m3
13863 kPa	718.9 kg/m3
13877 kPa	718.9 kg/m3
13892 kPa	719 kg/m3
13909 kPa	719 kg/m3
13924 kPa	719 kg/m3
13946 kPa	719 kg/m3
